What all share (format): cell-based
Experiment [1] deals with yeast cells. Put plainly: Neubauer chamber microscopy with erythrosine dye (Method 2), yeast cell count, viability and budding. Particulars: exposure +30° C. 5 hours; for Reproductive yeast cells %: budding cells over total living cells; for CFU/ml Yeasts 48 h, Neubauer count: total yeast cells; for Yeast cell viability %: viable cells over total cells (live+dead). Here is the method: (§1) Total viable bacteria and viable yeasts in the samples herein were measured as colony forming units (CFU) per unit of volume (i.e., CFU/ml). The viability of yeasts and their ability to reproduce were measured by using a microscopical method, where specific dye (erythrosine) was used to visualize the amount and form (live, dead, budding) of yeast cells.
(§2) The yeast cream samples (recovered from the wine, through a centrifuge) were diluted with lake water in a ratio of 30%+70%, respectively. The diluted yeast cream samples (later on called yeast cream solutions) were exposed to varying concentrations of performic acid in the equilibrium solution as follows: 49.5 ppm, 74.3 ppm and 99 ppm. In a control sample, no performic acid was added to the yeast cream solution. The effect of performic acid on bacteria was determined by one method (method 1), and on yeast cells by two methods (methods 1 and 2).
The exposed samples and the control sample were held in +30° C. for 5 hours, after which the specific parameters of yeast cells were measured. These parameters included the amount of living yeast cells, dead yeast cells and budding yeast cells (i.e. reproducing yeast cells). The method used was a standard method, commonly adopted by Brazilian Sugar Cane Industry mills. In the method, a Neubauer chamber was filled with approximately 10 μl of the exposed sample, where the erythrosine dye had been mixed in. On the cover slip, a drop of immersion oil was added, and the above mentioned yeast cell parameters were evaluated by using an immersion objective (100×) of the microscope. The cells that presented pink coloration were counted as dead cells, and uncolored cells as living cells. The budding cells were determined on the basis of the shape of the yeast cell.
The total amount of the yeast cells was counted and compared to the result obtained with Method 1. Results are provided in Table 1 (Neubauer count of yeast cells). The cell viability indicates the percentage of viable cells over total cells (live+dead). The cell reproductive % indicates the percentage of budding cells over total living cells.

For experiment [2], the system named is yeasts. As to the kind of experiment: Serial dilution and cultivation on Petri films after exposure of yeast cream solution (Method 1), yeasts. The settings on record: exposure +30° C. 30 minutes, incubated +30° C. 48 hours. Here is the method: as §1, §2
(§3) The exposed samples and the control sample were held in +30° C. for 30 minutes, after which the amount of survived microbes was enumerated. The method used was a Serial dilution and cultivation method, where the effect of performic acid on the yeast cream solution was measured via dilution and cultivation of the sample after the exposure, to enumerate the amount of microbial growth. This method entail the dilution of each is sample by a factor large enough to enable clear separation of individual microbial colonies on Petri™ films (from 3M); thus allowing the colonies to be individually counted. Where diluted samples had been applied and inoculated in, the Petri™ films were incubated at +35° C. for 48 hours (bacteria) or at +30° C. for 48 hours (yeasts).

For experiment [3], the system named is bacteria. As to the kind of experiment: Serial dilution and cultivation on Petri films after exposure of yeast cream solution (Method 1), bacteria. The settings on record: exposure +30° C. 30 minutes, incubated +35° C. 48 hours. Here is the method: as §1, §2, §3
Setting [4] is: 49.5 ppm performic acid in yeast cream solution.
The mark [5] stands for this setting: 74.3 ppm performic acid in yeast cream solution.
The mark [6] stands for this setting: 99 ppm performic acid in yeast cream solution.

SMILES strings stand for the structures.

In the case of `O=COO` [performic acid], the entries for the “Reproductive yeast cells %” value in experiment [1] (setting [4]), in experiment [1] (setting [5]) and in experiment [1] (setting [6]) were 6.8%, 8.9% and 4.1%, respectively. The “CFU/ml Yeasts 48 h, Neubauer count” value is given as 380 000 000 CFU/ml in experiment [1] (setting [4]), 400 000 000 CFU/ml in experiment [1] (setting [5]) and 640 000 000 CFU/ml in experiment [1] (setting [6]). Besides, the “Yeast cell viability %” value was found to be 71.1% in experiment [1] (setting [4]), 72.1% in experiment [1] (setting [5]) and 72.3% in experiment [1] (setting [6]). Moreover, the “CFU/ml Yeasts 48 h, MIC” value is reported as 1 000 000 000 CFU/ml in experiment [2] (setting [4]), 6 100 000 000 CFU/ml in experiment [2] (setting [5]) and 1 000 000 000 CFU/ml in experiment [2] (setting [6]). Further, the “CFU/ml Bacteria 48 h, MIC” value in experiment [3] (setting [4]) is 60 CFU/ml; in experiment [3] (setting [5]), 70 CFU/ml; in experiment [3] (setting [6]), 30 CFU/ml.
